Experimental data reported in PMC7782499, “Progerinin, an optimized progerin-lamin A binding inhibitor, ameliorates premature senescence phenotypes of Hutchinson-Gilford progeria syndrome” (Communications Biology, 2021).

How the values were obtained:
[1] = test system: HGPS cells; assay: SA-β-gal staining senescence assay in HGPS cells; type: cell-based, human
Description: Fig. S3. Chemical screening with JH4 derivatives (a total of 53 chemicals except JH010 and SLC -D011 were used). A. Summarized tables for effects of JH4 derivatives. ‘+’ means s t re ngt h of binding affinity or expression level after treatment of chemicals. Middle columns of tables show binding affinity between progerin and lamin A. Third columns of tables show level of progerin expression. […]
severe cytotoxicity (cell death or none). B , C, and D. Examples of screening based on pull-down assay. All chemicals were tested using GST pull-down assay. […]
inhibition activity than JH4. E. Generation of J H4 derivatives. To prevent rapid digestion in vivo, side chain was replaced by amide bond (J H010) or ether bond (SLC-D011).
H3K9me3 levels after treatment with J H010 and D011 in HGPS cells (n = 3 independent experiments; two- […]
with J H4, JH010, and SLC-D011 in HGPS cells (n = 3 independent experiments; two- tailed Student’s t- […]
fibroblasts from normal person and patients with HGPS (n = 3 independent experiments; two- tailed Student’s t -test), **p < 0.001, *p< 0.05. I. Transcriptional levels of progerin are not affected by treatment with SLC-D011. Total RNA was extracted after treatment with SLC-D011 for 7 days. The PCR products correspond to wild- type prelamin A and progerin transcripts. […]

[2] = target: T1, progerin-lamin A binding (Homo sapiens, UniProt P02545); assay: GST pull-down assay of progerin-lamin A binding; settings: 5 μM
T1 construct: expressed in transfected cells; host or cells: HEK293 (GFP-progerin); the GST-lamin A bait is a recombinant protein, with E. coli B834 (DE3) named for the lamin A/C fragments
T1 sequence (P02545 1-611 isoform P02545-6): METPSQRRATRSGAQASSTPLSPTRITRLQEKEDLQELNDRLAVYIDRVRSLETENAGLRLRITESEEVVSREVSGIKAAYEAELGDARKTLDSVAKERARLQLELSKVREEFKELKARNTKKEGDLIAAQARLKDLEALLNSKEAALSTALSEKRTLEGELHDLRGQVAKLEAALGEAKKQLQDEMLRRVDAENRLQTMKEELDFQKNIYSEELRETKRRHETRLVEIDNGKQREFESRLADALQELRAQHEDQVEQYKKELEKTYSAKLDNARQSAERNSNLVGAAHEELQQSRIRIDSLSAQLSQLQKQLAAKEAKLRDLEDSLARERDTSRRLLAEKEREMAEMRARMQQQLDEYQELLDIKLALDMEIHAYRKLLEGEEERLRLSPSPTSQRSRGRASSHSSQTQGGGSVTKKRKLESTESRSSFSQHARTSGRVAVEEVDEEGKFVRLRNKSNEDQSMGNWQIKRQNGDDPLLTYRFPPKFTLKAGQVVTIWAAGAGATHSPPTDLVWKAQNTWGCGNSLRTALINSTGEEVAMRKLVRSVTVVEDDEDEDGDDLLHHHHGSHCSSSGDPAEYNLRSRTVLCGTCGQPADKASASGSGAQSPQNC
Experimental: Fig. 1 SLC-D011 ameliorates premature aging features of HGPS. A. HEK293 cells were transiently transfected with expression vector encoding wild-type lamin A (WT-LA), lamin A-C661A (LA-C661A), progerin, or progerin-C611A. LA-C661A or progerin-C611A with point mutation in CaaX motif was predicted to be lack of farnesylation, […] that of authentic WT-LA or progerin. GFP-conjugated empty expression vector was used as a negative control. Cells were visualized at 24 h after transfection. B Transient transfection of HEK293 cells with expression vector encoding progerin or progerin-G611A leads to reduced expression of H3K9me3 (n = 3 independent experiments; two-tailed Student’s t test). C. JH4 derivatives (JH010 and SLC-D011(D011)) inhibit lamin A and progerin interaction. For binding inhibition assay, bead-conjugated lamin A (GST-LA) was incubated with HEK293 cells, transiently transfected with GFP-progerin (PG), and treated with indicated chemicals. Actin was used as a loading control. PPT, co-precipitated materials with recombinant proteins; Sup supernatant. 5 μM of each chemical was used for binding assay. […] H3K9me3 reduction is a well-known marker for premature aged cells. Thus, H3K9me3 expression was evaluated by immunostaining. […] Cell viability was determined by MTT assay after incubation with chemicals for 7 days (n = 3 independent experiments; two-tailed Student’s t test). […]

CC1(C)Oc2cc3oc(=O)ccc3cc2C[C@@H]1OC/C=C/c1ccccc1 [SLC-D011]
Cellular senescence (SA-β-gal staining) [1]: could block cellular senescence
Effect on interaction of progerin and lamin A [2]: could block the interaction of progerin and lamin A
